Data set [1] relates to Trypanosoma brucei rhodesiense (Tbr), STIB 900 strain. Further details: method as in PMID 40076324. The settings on record: separately tested in a recent study; cited from earlier work.
The subject of data set [2] is Plasmodium falciparum (Pf), NF54 strain. Also on record: method as in PMID 40076324. The settings on record: separately tested in a recent study; cited from earlier work.
Data set [3] concerns Trypanosoma brucei rhodesiense (Tbr), STIB 900 strain. In words: In vitro activity against Trypanosoma brucei rhodesiense (bloodstream trypomastigotes, STIB 900 strain). Type of data set: cell-based. How it is done:
(§1) In vitro biological activity against Trypanosoma brucei rhodesiense (bloodstream trypomastigotes, STIB 900 strain), Plasmodium falciparum (intraerythrocytic form, NF54 strain) and cytotoxicity assay against rat skeletal myoblasts (L6 cell line) were carried out at the Swiss Tropical and Public Health Institute (Swiss TPH, Allschwil, Switzerland) in accordance with the established standard procedures, in exactly the same manner and with the same cell lines as described recently.

For data set [4], the system named is Plasmodium falciparum (Pf), NF54 strain. In words: In vitro activity against Plasmodium falciparum (intraerythrocytic form, NF54 strain). Format: cell-based. Conditions: for IC50: Plasmodium falciparum. As to the method: as §1
A short description of data set [5]: Cytotoxicity assay against rat skeletal myoblasts (L6 cell line). Type of data set: cell-based. How it is done: as §1
Setting [6] is: Trypanosoma brucei rhodesiense, mean of two separate IC50 determinations ± absolute deviation, compounds tested as bis- or mono-trifluoroacetates, read-out: Tbr IC50.
Setting [7] is: NF54, mean of two separate IC50 determinations ± absolute deviation, compounds tested as bis- or mono-trifluoroacetates, read-out: Pf IC50.

Here are results for 11 compounds from PMC12693156, “Antiprotozoal Aminosteroid Alkaloids from Buxus obtusifolia (Mildbr.) Hutch” (Molecules, 2025).

As a reminder, the IC50 is the concentration at which inhibition is half-maximal.

Read-outs that look alike come from different tables or passages of the source. Bounds are passed on as bounds.

Take `O=C([O-])C(F)(F)F.[Na+]` [sodium trifluoroacetate]: the “activity against the target parasites (Tbr)” value in data set [1] was “inactive”. Further, in data set [2], the “activity against the target parasites (Pf)” value is “inactive”.

Take `CN[C@H]1CC[C@]23C[C@]24CC[C@]2(C)[C@@H](C(C)=O)[C@H](OC)C[C@@]2(C)[C@@H]4CC[C@H]3C1` [Compound 16, obtusibuxeine-A]: the results for the IC50 in data set [3] (setting [6]), in data set [4] (setting [7]) and in data set [5] were 22 ± 1.7 µM, 13 ± 1.4 µM and 45 ± 5.1 µM, respectively. Besides, the “SI Tbr (selectivity index)” value in data set [3] (cytotoxic IC50 (L6) / IC50 Tbr) came out at 2. Besides, the “SI Pf (selectivity index)” value in data set [4] (cytotoxic IC50 (L6) / IC50 Pf) is 3.

As to `COc1cc([C@@H]2c3cc4c(cc3[C@H](O)[C@H]3COC(=O)[C@H]23)OCO4)cc(OC)c1OC` [podophyllotoxin, reference compound], in data set [5] (Table 1, crude extracts and acid-base fractions, mean of two determinations ± absolute deviation, read-out: IC50 Cytotox. L6), the IC50 came out at 7 ± 2 ng/mL.

Turning to `Nc1nc(N)nc(Nc2ccc([As]3SCC(CO)S3)cc2)n1` (stereo not drawn) [melarsoprol, reference compound], the IC50 in data set [3] (Trypanosoma brucei, read-out: IC50 Tbr) is 4 ng/mL; in data set [3] (Trypanosoma brucei, read-out: Tbr IC50), 0.013 ± 0.001 µM.

Turning to `CC(=O)OC1C2OC3(C=CC(NC(=O)c4ccccc4)C(C)(C)C13)CC1=CCC3(C)C(C(C)N(C)C)C(O)CC3(C)C12` (stereo not drawn) [Compound 21, obtusiepoxamine-A], the half-inhibitory concentration (IC50) worked out at 2.2 ± 0.2 µM in data set [3] (setting [6]) and 10 ± 1.1 µM in data set [4] (setting [7]).

With `CCN(CC)CCCC(C)Nc1ccnc2cc(Cl)ccc12` (stereo not drawn) [chloroquine, reference compound], the concentration for half-maximal inhibition (IC50) was 2 ng/mL in data set [4] (NF54, read-out: IC50 Pf) and 0.012 µM in data set [4] (NF54, read-out: Pf IC50).

Regarding `CN[C@H]1[C@H](O)C[C@]23C[C@]24CC[C@]2(C)[C@@H]([C@H](C)N(C)C)CC[C@@]2(C)[C@@H]4CC[C@H]3[C@]1(C)COC(=O)c1cc(OC)c(OC)c(OC)c1` [Compound 5, 29-trimethoxybenzoyloxy cycloprotobuxoline-C], the 50% inhibitory concentration (IC50) in data set [3] (setting [6]) is 1.6 ± 0.7 µM; in data set [4] (setting [7]) it was 0.5 µM; in data set [4] (NF54, isolated compounds, tested as trifluoroacetate salts, molar IC50 calculated with mass of the salt, read-out: IC50 against Pf (antiplasmodial activity)), less than 1 µM.

Turning to `CN[C@@H](C)[C@H]1CC[C@@]2(C)[C@@H]3CC[C@H]4[C@]5(C)COCN(C)[C@H]5CC[C@@]45C[C@@]35CC[C@]12C` [Compound 15, N20-demethyl deoxycyclobuxoxazine-A], the IC50 in data set [3] (setting [6]) stood at 6.6 ± 3.5 µM; in data set [4] (setting [7]) it was 5.8 ± 0.4 µM.

As for `CN[C@H]1[C@H](O)C[C@]23C[C@]24CC[C@]2(C)[C@@H]([C@H](C)N(C)C)CC[C@@]2(C)[C@@H]4CC[C@H]3C1(C)C` [Compound 1, cycloprotobuxoline-C], the results for the IC50 in data set [3] (setting [6]), in data set [4] (setting [7]) and in data set [5] were 6.7 ± 3.3 µM, 28 ± 0.7 µM and greater than 100 µM, respectively.

Regarding `CN[C@@H](C)[C@H]1CC[C@@]2(C)[C@@H]3C=C[C@H]4C(C)(C)[C@@H](N(C)C)CC[C@@]45C[C@@]35CC[C@]12C` [Compound 12, deoxycyclovirobuxeine-B], the IC50 is 0.8 ± 0.3 µM in data set [3] (setting [6]); less than 1 µM in data set [3] (Trypanosoma brucei, isolated compounds, tested as trifluoroacetate salts, molar IC50 calculated with mass of the salt, read-out: IC50 against Tbr (antitrypanosomal activity)); 5.4 ± 1.2 µM in data set [4] (setting [7]).

Consider `CC(=O)O[C@H]1[C@@H](O)[C@@H]2C(=CC[C@]3(C)[C@@H]([C@H](C)N(C)C)CC[C@@]23C)CC2=CC[C@H](NC(=O)c3ccccc3)C(C)(C)[C@@H]21` [Compound 23, 16-deoxyobtusidienolamine-A], for which the results for the IC50 in data set [3] (setting [6]) and in data set [4] (setting [7]) were 6.5 ± 0.4 µM and 30 ± 6.5 µM, respectively.
